Data on eight molecules can be found in patent publication US20200087248A1, “Fluoroallylamine Derivative And Use Thereof” (SICHUAN KELUN-BIOTECH BIOPHARMACEUTICAL CO., LTD., priority 2017, published 2020).

The target of one data set is T1, VAP-1 (Homo sapiens, UniProt Q16853).
T1 construct: purchased R&D Systems
T1 sequence (Q16853 1-763): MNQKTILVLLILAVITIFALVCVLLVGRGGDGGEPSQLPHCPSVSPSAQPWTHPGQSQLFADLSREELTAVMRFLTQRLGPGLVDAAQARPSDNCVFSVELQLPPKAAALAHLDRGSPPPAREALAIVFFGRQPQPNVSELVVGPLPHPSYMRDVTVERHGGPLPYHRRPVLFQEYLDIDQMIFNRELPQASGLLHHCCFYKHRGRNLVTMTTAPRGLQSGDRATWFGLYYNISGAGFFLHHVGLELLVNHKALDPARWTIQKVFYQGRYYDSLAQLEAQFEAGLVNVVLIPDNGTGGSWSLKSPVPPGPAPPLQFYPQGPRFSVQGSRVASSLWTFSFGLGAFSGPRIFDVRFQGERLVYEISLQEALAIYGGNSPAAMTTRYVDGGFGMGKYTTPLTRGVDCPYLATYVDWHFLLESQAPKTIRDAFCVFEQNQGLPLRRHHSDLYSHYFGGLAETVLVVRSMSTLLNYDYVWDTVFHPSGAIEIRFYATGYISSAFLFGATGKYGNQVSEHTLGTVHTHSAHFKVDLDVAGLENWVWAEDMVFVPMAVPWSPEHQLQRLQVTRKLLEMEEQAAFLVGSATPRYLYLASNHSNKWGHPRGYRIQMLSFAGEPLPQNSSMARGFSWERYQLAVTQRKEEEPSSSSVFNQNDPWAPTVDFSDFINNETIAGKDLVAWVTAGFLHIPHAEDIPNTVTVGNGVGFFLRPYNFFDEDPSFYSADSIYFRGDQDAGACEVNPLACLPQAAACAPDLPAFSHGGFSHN
The data set is described as follows: Inhibition of the enzymatic activity of VAP-1 in vitro (Amplex Red). It counts as biochemical. The settings on record: VAP-1 protein about 20 nM, 10 min pre-incubation, benzylamine substrate; read-out: IC50, inhibition against the enzymatic activity of VAP-1. The procedure: Inhibition Experiment Against the Enzymatic Activity of VAP-1(Vascular Adhesion Protein 1) in vitro
Test kit: Amplex® Red Monoamine Oxidase Assay, Manufacturer: ThermoFisher
Reaction buffer solution: 50 mM PBS, pH 7.4
Enzyme: VAP-1, Manufacturer: R&D Systems
VAP-1 protein (about 20 nM) and different concentrations of the test compound were pre-incubated at room temperature for 10 minutes, followed by an addition of […] benzylamine hydrochloride, 1 U/mL HRP and 200 μM Amplex Red reagent according to the specification of the test kit to start the reaction. The reaction plate was placed in the enzyme marker, and in kinetic mode, fluorescence signals were measured at Ex/Em=540/590 nm. The relative inhibition activity of each concentration group was calculated, wherein the ratio (slope) of fluorescence signal to reaction time in the linear range is the reaction rate, the vehicle group (DMSO) is the negative control, and the reaction buffer solution group (without enzymes and the compounds) is the blank control. The half inhibition concentration (IC50) of the compound was calculated according to four-parameter model fitting curve.

The target in a further data set is T2, MAO-B (Homo sapiens, UniProt P27338).
T2 construct: purchased Sigma Aldrich
T2 sequence (P27338 1-520): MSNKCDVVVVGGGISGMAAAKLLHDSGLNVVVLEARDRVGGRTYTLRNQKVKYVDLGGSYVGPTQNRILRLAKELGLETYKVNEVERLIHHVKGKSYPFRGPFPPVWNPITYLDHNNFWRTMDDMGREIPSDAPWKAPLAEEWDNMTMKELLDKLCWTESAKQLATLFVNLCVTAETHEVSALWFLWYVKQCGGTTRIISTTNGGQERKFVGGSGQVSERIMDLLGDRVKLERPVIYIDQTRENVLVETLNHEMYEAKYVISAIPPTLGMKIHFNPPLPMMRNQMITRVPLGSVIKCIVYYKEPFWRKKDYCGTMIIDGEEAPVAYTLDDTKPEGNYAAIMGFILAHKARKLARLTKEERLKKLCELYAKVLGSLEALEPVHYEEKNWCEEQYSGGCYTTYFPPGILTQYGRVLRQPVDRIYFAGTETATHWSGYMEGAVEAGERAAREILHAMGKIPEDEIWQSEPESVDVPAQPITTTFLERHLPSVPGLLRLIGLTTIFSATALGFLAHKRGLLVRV
The experiment in a line: Inhibition of the enzymatic activity of MAO-B. It counts as biochemical. The settings on record: range of IC50 from inhibition rates at 10 μM, 1 μM and 0.1 μM; read-out: IC50, inhibition against the enzymatic activity of MAO-B. The procedure: Inhibition Experiment Against the Enzymatic Activity of MAO-B (Monoamine Oxidase Type B)
(§1) 1. Test kit: Amplex® Red Monoamine Oxidase Assay, Manufacturer: ThermoFisher
Protein: MAO-B, manufacturer: Sigma Aldrich
According to the method as described in the specification of the test kit, MAO-B protein (5 μg/ml) and different concentrations of the test compound were pre-incubated at room temperature for 10 minutes, and then 150 μM benzylamine hydrochloride, 1 U/mL HRP and 200 μM Amplex Red reagent were added to start the reaction. The relative inhibition rate of each concentration group were calculated according to the experimental method of MAO-A.
According to the above method, the inhibition of the compound against the activity of the MAO-B was measured, and the range of IC50 was obtained according to the inhibition rates at 10 μM, 1 μM and 0.1 μM.

The next data set deals with T3, DAO (Homo sapiens, UniProt P19801).
T3 construct: purchased R&D Systems
T3 sequence (P19801 20-751): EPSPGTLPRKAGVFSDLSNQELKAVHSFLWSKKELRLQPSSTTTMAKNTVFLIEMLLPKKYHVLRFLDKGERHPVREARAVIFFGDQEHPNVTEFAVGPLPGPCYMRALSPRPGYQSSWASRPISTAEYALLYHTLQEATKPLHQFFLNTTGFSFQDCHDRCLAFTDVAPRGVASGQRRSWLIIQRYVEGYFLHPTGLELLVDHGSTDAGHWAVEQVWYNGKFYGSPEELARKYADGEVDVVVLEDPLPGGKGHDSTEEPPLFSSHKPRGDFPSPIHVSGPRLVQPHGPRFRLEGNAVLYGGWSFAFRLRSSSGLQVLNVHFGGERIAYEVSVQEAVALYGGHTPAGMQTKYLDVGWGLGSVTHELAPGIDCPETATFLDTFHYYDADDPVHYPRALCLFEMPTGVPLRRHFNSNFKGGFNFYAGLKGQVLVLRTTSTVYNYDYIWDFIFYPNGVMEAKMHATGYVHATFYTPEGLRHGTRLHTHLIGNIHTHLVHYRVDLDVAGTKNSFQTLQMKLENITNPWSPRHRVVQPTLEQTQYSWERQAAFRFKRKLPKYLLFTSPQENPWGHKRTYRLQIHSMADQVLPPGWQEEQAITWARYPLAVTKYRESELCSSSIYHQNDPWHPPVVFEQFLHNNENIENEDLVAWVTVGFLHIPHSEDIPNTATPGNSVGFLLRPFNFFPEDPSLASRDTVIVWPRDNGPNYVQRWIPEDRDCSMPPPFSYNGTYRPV
The data set is described as follows: Inhibition of the enzymatic activity of DAO. It counts as biochemical. As to conditions: DAO 15 μg/ml, histamine substrate; read-out: IC50, inhibition against the enzymatic activity of DAO. The procedure:
Inhibition Experiment Against the Enzymatic Activity of DAO (Diamine Oxidase)
as §1
Protein: DAO, manufacturer: R&D Systems
DAO protein (15 μg/ml) and different concentrations of the test compound were pre-incubated at room temperature for 20 minutes, and then 100 μM Histamine-dihydrochloride, 1 U/mL HRP and 200 μM Amplex Red reagent were added to start the reaction. The inhibition rate of each concentration groups were calculated according to the experimental method of MAO-A.

The next data set addresses T4, MAO-A (Homo sapiens, UniProt P21397).
T4 construct: purchased Sigma Aldrich
T4 sequence (P21397 1-527): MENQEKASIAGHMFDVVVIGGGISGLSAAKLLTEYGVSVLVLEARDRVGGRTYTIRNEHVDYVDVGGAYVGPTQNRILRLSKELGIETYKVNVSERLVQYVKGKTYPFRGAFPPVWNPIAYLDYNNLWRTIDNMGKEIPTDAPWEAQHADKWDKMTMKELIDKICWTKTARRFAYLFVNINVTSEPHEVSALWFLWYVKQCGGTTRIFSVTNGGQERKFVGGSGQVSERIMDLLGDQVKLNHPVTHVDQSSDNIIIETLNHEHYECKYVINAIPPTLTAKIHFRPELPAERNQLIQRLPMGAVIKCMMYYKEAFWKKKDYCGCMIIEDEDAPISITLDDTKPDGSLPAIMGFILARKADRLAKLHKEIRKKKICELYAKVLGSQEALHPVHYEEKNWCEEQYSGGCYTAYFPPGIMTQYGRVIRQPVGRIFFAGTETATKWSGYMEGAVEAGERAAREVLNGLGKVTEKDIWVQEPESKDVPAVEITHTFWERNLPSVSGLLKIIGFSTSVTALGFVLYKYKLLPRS
The data set is described as follows: Inhibition of the enzymatic activity of MAO-A. It counts as biochemical. The settings on record: range of IC50 from inhibition rates at 100 μM and 10 μM; read-out: IC50, inhibition against the enzymatic activity of MAO-A. The procedure: Inhibition Experiment Against the Enzymatic Activity of MAO-A (Monoamine Oxidase Type A)
as §1
2. Reaction Buffer Solution: 50 mM PBS, pH 7.4
Protein: MAO-A, manufacturer: Sigma Aldrich
According to the method as described in the specification of the kit, MAO-A protein (15 μg/ml) and different concentrations of the test compound were pre-incubated at room temperature for 30 minutes, and then 200 μM p-tyramine hydrochloride, 1 U/mL HRP and 200 µM Amplex Red reagent were added to start the reaction. In kinetic mode, fluorescence signals were measured at Ex/Em=540/590 nm. The inhibition rate of each concentration group was calculated, wherein the ratio of fluorescence signal to reaction time ratio is the reaction rate, the vehicle group (DMSO) is the negative control, and the reaction buffer solution group (without enzymes and the compounds) is the blank control.
Percent inhibition rate (%)=(1-(reaction rate of each compound concentration group−reaction rate of the blank group)/(reaction rate of vehicle group−reaction rate of the blank group))*100.
According to the above method, the inhibition of the compound against the enzymatic activity of MAO-A was measured, and the range of IC50 was obtained according to the inhibition rates at 100 μM and 10 μM.

The target of a further data set is T5, hERG (Homo sapiens, UniProt Q12809).
T5 construct: purchased ThermoFisher; host or cells: hERG cell membrane supplied with the kit
The experiment in a line: hERG fluorescence polarization inhibition experiment. As to conditions: human, probe tracer having high affinity to hERG (kit tracer), hERG cell membrane, 25° C. 2 hours, read-out: hERG (IC50 range, competitive binding vs tracer). As to the method: hERG (Ether-a-go-go-related Gene Potassium Channel) Inhibition Experiment
Reagent: Predictor™ hERG Fluorescence Polarization Assay Kit, Manufacturer: ThermoFisher
The above test kit was used to evaluate the potential of the compound for inducing heart QT prolongation. According to the method as indicated in the specification of the test kit, the test compound, the positive control (E4031) and negative control (Experimental buffer solution) in the kit were added to a microwell plate containing hERG cell membrane, and then a tracer having high affinity to hERG was added. The microwell plate was then incubated at 25° C. for 2 hours, a BMG PHAREStar polyfunctional enzyme marker was used to test the variations in the fluorescent polarization value. By calculating the percent inhibition rates (%) at different concentrations, the range of the half inhibition concentration (IC50) was determined:
Percent inhibition rate (%)=(1-(mP of the test compound-mP of 30 μM E4031)/(mP of experimental buffer solution-mP of 30 μM E4031))*100.
A general note: Block of hERG is tested as a sign of cardiac risk.

Where a name gives a salt, the structure may show the parent alone. Some results are limits rather than exact numbers.

As usually defined, the IC50 is the concentration that gives 50% inhibition.

T5 sequence (Q12809 whole entry): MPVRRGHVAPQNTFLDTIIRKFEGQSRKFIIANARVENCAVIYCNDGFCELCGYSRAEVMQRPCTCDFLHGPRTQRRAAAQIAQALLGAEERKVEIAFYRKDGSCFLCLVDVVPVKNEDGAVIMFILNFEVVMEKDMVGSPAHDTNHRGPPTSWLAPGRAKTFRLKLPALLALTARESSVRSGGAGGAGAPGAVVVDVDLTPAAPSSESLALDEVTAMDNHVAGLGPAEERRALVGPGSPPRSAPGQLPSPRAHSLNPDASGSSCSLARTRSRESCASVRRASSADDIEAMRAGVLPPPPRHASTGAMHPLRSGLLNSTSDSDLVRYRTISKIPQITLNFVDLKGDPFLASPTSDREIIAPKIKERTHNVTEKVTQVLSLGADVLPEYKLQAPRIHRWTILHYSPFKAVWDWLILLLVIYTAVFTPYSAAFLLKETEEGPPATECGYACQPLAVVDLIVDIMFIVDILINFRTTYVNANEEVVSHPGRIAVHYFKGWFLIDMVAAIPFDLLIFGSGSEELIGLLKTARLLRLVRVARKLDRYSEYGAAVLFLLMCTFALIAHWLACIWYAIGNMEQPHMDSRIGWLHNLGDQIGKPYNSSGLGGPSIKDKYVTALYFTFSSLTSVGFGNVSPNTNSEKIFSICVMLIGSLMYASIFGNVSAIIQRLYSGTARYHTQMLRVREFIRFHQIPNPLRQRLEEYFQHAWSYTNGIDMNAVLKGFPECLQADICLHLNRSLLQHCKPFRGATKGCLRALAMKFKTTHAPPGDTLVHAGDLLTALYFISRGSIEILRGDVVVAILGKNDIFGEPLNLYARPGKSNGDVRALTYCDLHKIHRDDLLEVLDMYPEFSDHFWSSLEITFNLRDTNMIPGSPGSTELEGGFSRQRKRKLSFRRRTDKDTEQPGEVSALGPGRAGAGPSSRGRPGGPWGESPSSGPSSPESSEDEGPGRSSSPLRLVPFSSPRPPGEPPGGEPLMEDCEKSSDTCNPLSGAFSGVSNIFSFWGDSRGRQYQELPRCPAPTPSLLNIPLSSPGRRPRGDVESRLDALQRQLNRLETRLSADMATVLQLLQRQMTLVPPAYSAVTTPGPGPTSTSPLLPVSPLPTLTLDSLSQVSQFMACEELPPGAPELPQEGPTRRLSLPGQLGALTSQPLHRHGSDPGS

For the molecule `NC/C(=C/F)COc1ccc2c(c1)C(=O)CC2` [TM7-Z, (Z)-6-((2-aminomethyl-3-fluoroallyl)oxy)-2,3-dihydro-1-indenone trifluoroacetate], the half-maximal inhibitory concentration (IC50) at VAP-1 was 3.8 ± 0.4 nM; at MAO-B it was more than 10000 nM; on DAO, more than 100 nM.

For `NC/C(=C/F)COc1ccc(C(=O)NC2CCOCC2)cc1` [TM76-Z, (Z)-N-(tetrahydro-2H-pyran-4-yl)-4-((2-aminomethyl-3-fluoroallyl)oxy)-benzamide trifluoroacetate], the results for the half-inhibitory concentration (IC50) at VAP-1, at MAO-A and on MAO-B were 1.8 ± 0.2 nM, more than 100000 nM and more than 100 nM, respectively.

As for `NC/C(=C/F)COc1ccc2c(c1)CNC2=O` [TM77-Z, (Z)-5-((2-aminomethyl-3-fluoroallyl)oxy)isoindol-1-one trifluoroacetate], the IC50 at MAO-A is more than 100000 nM. Moreover, on hERG, the concentration for half-maximal inhibition (IC50) at 2 h is more than 10000 nM.

For the molecule `NC/C(=C\F)COc1ccc(C(=O)NCc2ccccn2)cc1` [TM112-E, (E)-4-((2-aminomethyl-3-fluoroallyl)oxy)-N-(pyridin-2-ylmethyl)benzamide trifluoroacetate], the IC50 at VAP-1 is 3.2 ± 0.4 nM; at MAO-A, more than 100000 nM; at MAO-B, more than 100 nM.

Regarding `NC/C(=C\F)COc1ccc(C(=O)Nc2ccc3c(c2)OCCO3)cc1` [TM114-E, (E)-4-((2-aminomethyl-3-fluoroallyl)oxy)-N-(2,3-dihydrobenzo[b][1,4]dioxa-6-yl)benzamide trifluoroacetate], the figures for the 50% inhibitory concentration (IC50) at VAP-1 and at MAO-A were 1.1 ± 0.2 nM and more than 10000 nM, respectively.

Take `NC/C(=C/F)COc1ccc(C(=O)Nc2ccc3c(c2)OCCO3)cc1` [TM114-Z, (Z)-4-((2-aminomethyl-3-fluoroallyl)oxy)-N-(2,3-dihydrobenzo[b][1,4]dioxa-6-yl)benzamide trifluoroacetate]: the results for the half-inhibitory concentration (IC50) at VAP-1 and on MAO-A were 0.8 ± 0.1 nM and more than 10000 nM, respectively.

On to “(Z)-6-((2-(methylamino)-3-fluoroallyl)oxy)-2-methyl-3,4-dihydroisoquinolin-1(2H)-one trifluoroacetate [TM66-Z]”, for which the IC50 at VAP-1 was 1.6 ± 0.2 nM; at MAO-B, more than 10000 nM.

In the case of “(Z)-6-((2-(methylamino)-3-fluoroallyl)oxy)-3,3-dimethyl-3,4-dihydroisoquinolin-1(2H)-one trifluoroacetate [TM38-Z]”, the results for the IC50 at VAP-1, at MAO-B and on DAO were 2.9 ± 0.3 nM, more than 10000 nM and more than 100 nM, respectively.
